# Reference: patent EP2982368A1, “Small molecule compounds displacing focal adhesion core components” (Universität Konstanz, priority 2014, dated 2016)
# Test system: MDA-MB-231 breast cancer cells
# Assay: In vitro wound healing assay
# Format: cell-based, human
# Settings: 3 µM, 25 h, serum-containing growth medium
# Description: Image J was used to automatically quantify FAK-containing focal adhesions due to local maxima of fluorescence intensity in the GFP-channel (5 to 70 pixel). The number of cells was automatically counted in the Hoechst channel. To test reproducibility of the system 40 control wells were quantified wherein four positions for each well were imaged. […] GFP-FAK mouse embryonic fibroblasts were seeded on fibronectin and incubated for 1 h with the indicated concentrations of the small compounds, respectively. […] GFP-FAK mouse embryonic fibroblasts were seeded on fibronectin and serum-starved overnight. The indicated concentrations of Mb31 were applied for 30 min. Cells were lysed and analyzed for paxillin and FAK protein level as well as FAK Tyr397 phosphorylation. […] The purified kinase domain of FAK was incubated with increasing amounts of Mb31 for 1 h at 30°C together with poly-Glu-Tyr as a FAK substrate. […] Serum-starved GFP-FAK mouse embryonic fibroblasts were stimulated with normal growth medium and incubated for 5 h with the indicated concentrations of the small molecule compounds, respectively. Cell viability was assessed by MTT assay. […] GFP-FAK MEFs were seeded on fibronectin and serum-starved overnight. Migration was stimulated by replacing the medium with normal growth medium. Migration of single cells was tracked for 8 h in 30 min intervals. Migration was recorded from cells that were cultured without serum (A), with serum (B) or with serum in the presence of 3 µM Mb31 (C). […] (A) GFP-FAK MEFs were seeded and serum-starved as in Figure 10. Cell migration was stimulated with normal growth medium and single cells were tracked for 5 h. (B) Mb31 was added and the same cells were tracked for additional 5 h. (C) Mean velocities of differently treated cells were plotted over time. […] NIH-v-Src fibroblasts were seeded on 2 µg/ml FN in DMEM/0.5%BSA and stimulated with 10 ng/ml EGF or kept unstimulated. […] Mouse embryonic fibroblasts (MEFs) were transfected with talin-mCherry and talin dynamics analyzed in focal adhesions using fluorescence recovery after photobleaching (FRAP). Cells were left untreated (A) or treated with 10 µM of Mb31 (B). In untreated cells, the mCherry intensity recovered, indicating replacement of bleached by non-bleached talin and therefore turnover of talin at focal adhesions. […] (C) Wound closure was microscopically analyzed and evaluated using ImageJ software.
# To determine if the migration of transformed cells can be blocked by FLocker1 and related compounds, human breast carcinoma cells (MDA-MB-231) were used in in vitro wound healing assays. […] The ability of the cells to migrate and close the wound space was monitored by microscopy and quantified (Figure 18B and C).
row,Compound,migration of cancer cells / wound closure
1,"O=[N+]([O-])/C=C/c1cccc(O)c1 [FootLocker 3, (E)-3-(2-nitrovinyl)phenol]",retarded the migration of the cancer cells
2,"O=[N+]([O-])/C=C/c1ccccc1F [FootLocker 9, (E)-1-fluoro-2-(2-nitrovinyl) benzene]",retarded the migration of the cancer cells

# Molecular target: T1, FAK/Paxillin (Mus musculus, UniProt P34152+Q8VI36)
# T1 construct: expressed in transfected cells; host or cells: mouse fibroblasts stably expressing GFP-FAK
# T1 sequence (P34152 whole entry): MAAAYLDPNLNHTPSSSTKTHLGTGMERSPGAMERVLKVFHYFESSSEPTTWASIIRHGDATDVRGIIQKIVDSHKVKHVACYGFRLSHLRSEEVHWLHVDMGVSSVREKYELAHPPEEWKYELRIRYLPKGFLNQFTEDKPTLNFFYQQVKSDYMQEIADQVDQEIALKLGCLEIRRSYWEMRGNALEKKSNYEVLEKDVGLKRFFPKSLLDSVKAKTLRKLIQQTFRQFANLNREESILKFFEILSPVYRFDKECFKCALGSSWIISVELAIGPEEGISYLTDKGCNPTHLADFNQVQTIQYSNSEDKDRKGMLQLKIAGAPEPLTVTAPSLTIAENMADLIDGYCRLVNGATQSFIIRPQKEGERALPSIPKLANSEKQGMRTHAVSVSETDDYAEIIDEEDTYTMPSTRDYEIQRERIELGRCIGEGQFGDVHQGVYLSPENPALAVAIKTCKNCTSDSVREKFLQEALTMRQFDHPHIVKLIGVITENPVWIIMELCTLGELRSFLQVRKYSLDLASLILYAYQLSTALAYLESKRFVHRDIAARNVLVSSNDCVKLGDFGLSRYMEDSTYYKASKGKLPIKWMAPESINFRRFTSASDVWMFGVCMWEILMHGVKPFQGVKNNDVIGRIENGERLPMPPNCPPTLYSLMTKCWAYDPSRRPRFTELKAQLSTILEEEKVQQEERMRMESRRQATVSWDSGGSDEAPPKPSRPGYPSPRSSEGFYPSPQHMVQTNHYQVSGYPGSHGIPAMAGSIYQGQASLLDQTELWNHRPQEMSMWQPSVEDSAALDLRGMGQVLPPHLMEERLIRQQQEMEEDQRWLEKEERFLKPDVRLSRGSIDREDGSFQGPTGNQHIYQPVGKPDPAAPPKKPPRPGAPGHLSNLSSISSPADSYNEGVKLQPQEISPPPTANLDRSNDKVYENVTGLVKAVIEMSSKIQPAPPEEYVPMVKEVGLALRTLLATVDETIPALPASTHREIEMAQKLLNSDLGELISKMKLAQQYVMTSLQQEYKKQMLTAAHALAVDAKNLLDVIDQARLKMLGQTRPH
# T1 sequence (Q8VI36 whole entry): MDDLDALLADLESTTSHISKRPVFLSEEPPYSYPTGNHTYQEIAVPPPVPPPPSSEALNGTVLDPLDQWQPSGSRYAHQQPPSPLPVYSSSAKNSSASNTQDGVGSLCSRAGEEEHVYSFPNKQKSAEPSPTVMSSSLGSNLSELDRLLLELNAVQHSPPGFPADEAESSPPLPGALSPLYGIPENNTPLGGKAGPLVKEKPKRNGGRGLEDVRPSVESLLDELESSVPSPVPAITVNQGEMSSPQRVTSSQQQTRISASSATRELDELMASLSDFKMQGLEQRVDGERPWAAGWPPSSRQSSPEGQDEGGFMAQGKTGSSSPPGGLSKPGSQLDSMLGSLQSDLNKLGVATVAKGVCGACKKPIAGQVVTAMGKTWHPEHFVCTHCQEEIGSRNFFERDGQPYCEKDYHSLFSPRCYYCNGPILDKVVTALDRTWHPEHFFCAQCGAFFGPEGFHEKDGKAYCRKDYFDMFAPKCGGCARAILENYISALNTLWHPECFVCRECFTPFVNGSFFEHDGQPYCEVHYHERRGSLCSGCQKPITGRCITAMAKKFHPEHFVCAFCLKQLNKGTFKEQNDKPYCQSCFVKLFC
# Assay: FAK/Paxillin displacement by structurally related compounds (FootLocker series, confocal microscopy)
# Format: cell-based
# Set-up: key to Activtiy (activity towards FAK/Paxillin displacement): ++ indicates displacing effect at 5 µM; + at 20 µM; - indicates no observed effect
# Settings: not given
# Description: To determine whether compounds structurally related to Mb31 and Mb36 are likewise suitable to interfere with FAK localization at focal adhesions, mouse fibroblasts stably expressing GFP-FAK were treated for 30 min with 1, 10 or 20 µM of the following compounds: trans-3-hydroxy-β-nitrostyrene (THBN), trans-4-Chloro-β-nitrostyrene (T4CN), trans-β-nitrostyrene (TBN), 4-chlorocinnamic acid (4CA), and trans-3-(4-bromothiophen-2-yl)acrylic acid (T34BA) (Figures 16 and 17). The cells were analyzed by confocal microscopy for GFP-FAK localization. DMSO treatment served as a vehicle control. […] Additional substituents at the aromatic structures, such as halogen atoms or hydroxy groups may contribute to the reactivity of the compound, but are not essential. Based on these findings, the inventors have extended their structure activity-relationship studies and synthesized additional related compounds, which, similar to Mb31, displace FAK and paxillin at concentrations below 10µM (++), displace FAK and paxillin at concentrations above 10 µM (+), or lack FAK and paxillin displacing activity (-). All these substances were then also nicknamed in the FLocker terminology, resulting in FLocker1 - FLocker24 (Table 2). Table 2: Overview of FootLocker nomenclature, their chemical notation/structure and the activity towards FAK/Paxillin displacement
Compound,compounds showing the most prominent effect on protein-protein interactions at focal adhesion site,disruption of protein-protein interactions at focal adhesion site,Activtiy (activity towards FAK/Paxillin displacement)
"O=[N+]([O-])/C=C/c1cccc(O)c1 [FootLocker 3, (E)-3-(2-nitrovinyl)phenol]",most prominent effect,efficiently disrupt protein-protein interactions at focal adhesion site,
"COc1cccc(/C=C/[N+](=O)[O-])c1 [FootLocker 4, (E)-1-methoxy-3-(2-nitrovinyl)benzene]",most prominent effect,efficiently disrupt protein-protein interactions at focal adhesion site,
"[N-]=[N+]=NCCOCCOCCOCCNC(=O)CCCCCCOc1cccc(/C=C/[N+](=O)[O-])c1 [FootLocker 7, (E)-N-(2-(2-(2-(2-azidoethoxy)ethoxy)ethoxy)ethyl)-7-(3-(2-nitrovinyl)phenoxy)heptanamide]",,efficiently disrupt protein-protein interactions at focal adhesion site,
"O=[N+]([O-])/C=C/c1ccccc1O [FootLocker 8, (E)-2-(2-nitrovinyl)phenol]",,efficiently disrupt protein-protein interactions at focal adhesion site,
"O=[N+]([O-])/C=C/c1ccccc1F [FootLocker 9, (E)-1-fluoro-2-(2-nitrovinyl) benzene]",most prominent effect,efficiently disrupt protein-protein interactions at focal adhesion site,
"Cc1ccc(/C=C/[N+](=O)[O-])cc1 [FootLocker 10, (E)-1-methyl-4-(2-nitrovinyl) benzene]",most prominent effect,efficiently disrupt protein-protein interactions at focal adhesion site,
"O=[N+]([O-])/C=C/c1cccc(Br)c1 [FootLocker 11, (E)-1-bromo-3-(2-nitrovinyl)benzene]",,efficiently disrupt protein-protein interactions at focal adhesion site,
"O=[N+]([O-])/C=C/c1cccc(Cl)c1 [FootLocker 12, (E)-1-chloro-3-(2-nitrovinyl)benzene]",,efficiently disrupt protein-protein interactions at focal adhesion site,
"O=[N+]([O-])/C=C/c1cccc([N+](=O)[O-])c1 [FootLocker 13, (E)-1-nitro-3-(2-nitrovinyl)benzene]",most prominent effect,efficiently disrupt protein-protein interactions at focal adhesion site,
"C/C(=C\c1ccccc1)[N+](=O)[O-] [FootLocker 15, (E)-(2-nitroprop-1-en 1-yl)benzene]",,efficiently disrupt protein-protein interactions at focal adhesion site,
"C/C(=C\c1ccc(Br)cc1)[N+](=O)[O-] [FootLocker 16, 1-bromo-4-[(1E)-2-nitro-1-propenyl]benzene]",most prominent effect,efficiently disrupt protein-protein interactions at focal adhesion site,
"O=[N+]([O-])C=Cc1ccco1 [FootLocker 17, 2-(2-Nitrovinyl)-furan]",most prominent effect,efficiently disrupt protein-protein interactions at focal adhesion site,
"O=[N+]([O-])C=Cc1cccnc1 [FootLocker 18, 3-(2-nitro-vinyl)-pyridine]",,efficiently disrupt protein-protein interactions at focal adhesion site,
O=[N+]([O-])/C=C/c1cc(Br)cs1 [compound 1],,,++ (++ indicates displacing effect at 5 µM)
Nc1ccc(SC(C[N+](=O)[O-])c2ccc(Cl)cc2)cc1 (stereo not shown) [compound 2],,,++ (++ indicates displacing effect at 5 µM)
O=[N+]([O-])/C=C/c1cccc(O)c1 [compound 3],,,++ (++ indicates displacing effect at 5 µM)
COc1cccc(/C=C/[N+](=O)[O-])c1 [compound 4],,,++ (++ indicates displacing effect at 5 µM)

Compound,compounds showing the most prominent effect on protein-protein interactions at focal adhesion site,disruption of protein-protein interactions at focal adhesion site,Activtiy (activity towards FAK/Paxillin displacement)
CCOC(=O)CCCCCOc1ccc(/C=C/[N+](=O)[O-])cc1 [compound 5],,,+ (+ at 20 µM)
[N-]=[N+]=NCCOCCOCCOCCNC(=O)CCCCCCOc1cccc(C=O)c1 [compound 6],,,-
[N-]=[N+]=NCCOCCOCCOCCNC(=O)CCCCCCOc1cccc(/C=C/[N+](=O)[O-])c1 [compound 7],,,+ (+ at 20 µM)
O=[N+]([O-])/C=C/c1ccccc1O [compound 8],,,+ (+ at 20 µM)
O=[N+]([O-])/C=C/c1ccccc1F [compound 9],,,++ (++ indicates displacing effect at 5 µM)
Cc1ccc(/C=C/[N+](=O)[O-])cc1 [compound 10],,,++ (++ indicates displacing effect at 5 µM)
O=[N+]([O-])/C=C/c1cccc(Br)c1 [compound 11],,,+ (+ at 20 µM)
O=[N+]([O-])/C=C/c1cccc(Cl)c1 [compound 12],,,+ (+ at 20 µM)
O=[N+]([O-])/C=C/c1ccc(F)cc1 [compound 14],,,++ (++ indicates displacing effect at 5 µM)
C/C(=C\c1ccc(Br)cc1)[N+](=O)[O-] [compound 16],,,++ (++ indicates displacing effect at 5 µM)
O=[N+]([O-])/C=C/c1ccco1 [compound 17],,,++ (++ indicates displacing effect at 5 µM)
O=[N+]([O-])/C=C/c1cccnc1 [compound 18],,,+ (+ at 20 µM)
O=[N+]([O-])/C=C/c1c[nH]c2ccccc12 [compound 19],,,-
O=[N+]([O-])/C=C/c1cn(-c2ccccc2)c2ccccc12 [compound 20],,,-
O=C/C=C/c1ccc(Cl)cc1 [compound 22],,,-
O=C(O)/C=C/c1cc(Br)cs1 [compound 24],,,-
(E)-ethyl 6-(4-(2-nitrovinyl)phenoxy)hexanoate [FootLocker 5],,efficiently disrupt protein-protein interactions at focal adhesion site,
